Like-named read-outs stand apart in the source and are kept apart here. Residues, ends and D or L forms follow the SMILES beside them. *: point of attachment. Cbz = O=C(OCc1ccccc1)*; CH2F = FC*
Assays:
[1] = patients; cited from earlier work
NGly1 [2] = biological target: T1, NGly1 (Homo sapiens, UniProt Q96IV0); test: Cresswell assay (ddVenus fluorescence on deglycosylation by NGly1) in stably transfected K562 cells; type: cell-based; set-up: endogenous in cells; host or cells: K562 cells stably transfected with the ddVenus reporter; conditions: for IC50: K562 ddVenus cells, read-out: IC50 (reduction of fluorescence)
T1 sequence (Q96IV0 1-654): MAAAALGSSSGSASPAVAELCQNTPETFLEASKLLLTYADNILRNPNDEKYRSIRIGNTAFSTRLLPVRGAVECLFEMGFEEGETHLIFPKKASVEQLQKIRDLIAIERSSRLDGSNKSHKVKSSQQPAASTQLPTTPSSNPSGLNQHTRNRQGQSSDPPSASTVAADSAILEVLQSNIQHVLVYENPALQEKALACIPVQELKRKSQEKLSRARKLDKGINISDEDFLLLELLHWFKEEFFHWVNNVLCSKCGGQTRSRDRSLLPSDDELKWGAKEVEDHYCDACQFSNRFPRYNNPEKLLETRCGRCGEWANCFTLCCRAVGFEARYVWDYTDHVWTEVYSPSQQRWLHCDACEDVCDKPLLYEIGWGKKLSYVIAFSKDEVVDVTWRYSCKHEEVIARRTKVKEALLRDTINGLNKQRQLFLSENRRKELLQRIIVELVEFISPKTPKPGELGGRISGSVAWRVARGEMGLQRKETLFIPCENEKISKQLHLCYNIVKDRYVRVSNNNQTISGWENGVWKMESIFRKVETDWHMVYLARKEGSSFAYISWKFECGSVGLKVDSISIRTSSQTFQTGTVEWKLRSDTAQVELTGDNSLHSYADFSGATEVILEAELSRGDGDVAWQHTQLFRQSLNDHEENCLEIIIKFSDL
From the text: The assay used was a modified version of the fluorimetric assay first described by the Cresswell lab in 2011. Prepared by the Steinmetz lab, a stably transfected K562 cell line was used. Mutated to misfold and contain a site for N-glycosylation, the expressed ddVenus would only properly fold, and thus fluoresce, upon deglycosylation by NGly1 and concurrent conversion of the glycosylated asparagine residue to aspartic acid (FIG. 4A). Thus inhibition of NGly1 would not activate fluorescence in this assay. With this method a library of about 600 cysteine-protease inhibitor-like compounds were screened. Six hits were found, all of which were peptide-derived structures with an electrophilic warhead consisting of either a vinyl sulfone or epoxyketone (FIG. 4B).
Screen of ˜600 compounds with the Cresswell Assay. Screens were performed clear, V-bottom 96-well plates. Plates were prepared with negative control 2 μL DMSO (A1) and positive control 1 μL DMSO+1 μL 10 mM Z-VAD-fmk (final conc. 100 uM Z-VAD-fmk; A12-H12). Wells A2-A11 contained 1 μL DMSO, the remaining wells contained 1 μL of 1 mM stocks of compounds from the library.
100 μL of suspended K562 ddVenus cells were added to the plate at 1×10^6 cells/mL. Wells A1-A12 contained cells in growth media. The remaining wells contained cells in growth media supplemented 100 uM carfilzomib.
The mean of fluorescence in FL1 was plotted for each well.
Z-factor for the assay ranged between 0.38-0.85.

NGly1 [3] = biological target: T1, NGly1; test: Gel shift of RNAse B exposed to recombinant Ngly1; type: biochemical; conditions: gel electrophoresis, in the presence of the compound
From the text: To detect direct inhibition of NGly1 by WRR139, the mass shift of RNAse B exposed to recombinant Ngly1 was observed by gel electrophoresis. In the presence of Ngly1, RNAse B was fully converted from its glycosylated band at pXXX to a deglycosylated protein at pXXX (FIG. 4D).

caspases 3/7 = test: Caspase 3/7 inhibition assay (Caspase-Glo, staurosporine-induced U266 cells); type: cell-based; conditions: staurosporine 1 μM, 8 hours
Description: We were further interested to see whether this molecule would also hit caspases, similar to the known Ngly1 inhibitor Z-VAD-fmk. […] Inhibition of caspases 3/7 was not observed until a concentration of about 10 μM was reached. In addition, the relative activity was not lowered below the range observed by induced apoptosis
Caspase 3/7 inhibition assay. 1 million U266 cells were suspended in 10 mL RPMI 15% BSA+PS, and plated into a flat-bottom, white-walled 96-well plate (100 μL per well). The plate was incubated at 37° C. overnight. The following day, cells were treated with staurosporine (apoptosis inducer, final concentration 1 μM), WRR139 or Z-VAD-fmk (at final concentrations shown) or DMSO to a final concentration of 2% DMSO (v/v) respectively. The plate was incubated for 8 hours at 37° C. Caspase-Glo kit reagent (company details) was prepared as per instruction from the manufacturer and after equilibration to 23° C. […] of the reagent was added to each well. […] Caspase inhibition was calculated by subtracting background (signal from media containing no cells) and comparison to signal from cells with induced apoptosis (staurosporine only).

Nrf1 [4] = test: Confocal imaging of Nrf1 localization in Nrf1 overexpressing HEK cells; type: cell-based, Human
From the text: We further used confocal microscopy to visualize the localization of Nrf1 in MEFs and Nrf1 overexpressing HEK cells before and after treatment with carfilzomib (FIGS. 2B and C). In absence of carfilzomib Wt and NGly1^−/− MEFs show Nrf1 (in white) in low abundance and mainly in the cytosol (FIG. 2B). After treating the cells with carfilzomib for several hours, wt MEFs show Nrf1 in the nucleus whereas NGly1^−/− MEFs only show a higher abundance of Nrf1 in the cytosol. […] Untreated cells show Nrf1 mainly in the cytosol around the ER. […] Taking all the results in account we conclude that functioning NGly1 is required to activate Nrf1.
Immunofluorescence followed by confocal imaging. MEFs and Nrf-3× Flag overexpressing HEK cells were grown to 80% confluency on cover slips. Cells were treated with NGLy1-, caspase-, and proteasome inhibitors as indicated and allowed to recover in fresh media for one hour before cells were fixed using 100% ice cold methanol. Cells were treated with a primary rabbit monoclonal antibody raised against the N-terminus of Nrf1 (D5B10, Cell Signaling) and a secondary polyclonal Alexa Fluor0647 AffiniPure Fab Fragment Goat Anti-Rabbit IgG (H+L) (Jackson Immuno Research). […] Images were analyzed using Imaris analysis software (version). […]

Proteasome = conditions: blood and PBMCs, cited from earlier work
K562 cells = test: Carfilzomib sensitivity of CRISPRi-knockdown K562 cell lines; type: cell-based
Description: Carfilzomib sensitivity of CRISPRi-knockdown k562 cell lines. Carfilzomib dissolved in DMSO at a concentration of 10 mM was used freshly or stored at −80° C. for no longer than a month without repeated freeze-thaw cycles. K562 cells were seeded at a density of 0.2 million cells/ml in 100 μl of RPMI medium in each well of a 96-well plate for 18 hours before treatment. The next day, serial-diluted Carfilzomib or DMSO was added to the cells with a final concentration of DMSO of 0.1% (v/v) in each well. After 48 hours of incubation at 37° C., the plate was retrieved and stained with a calcein-based LIVE/DEAD® Viability/Cytotoxicity Kit (Thermo Fisher Scientific), according to the manufacturer's instruction. The cells were then counted on an Accuri C6 flow cytometer (BD Biosciences, CA, USA). A total of 10,000 events was collected for each well. The viability was calculated as the percent of calcein-positive cells in each Carfilzomib-treated sample, normalized to that of the DMSO-treated vehicle control.

Nrf1 [5] = test: 3xPSMA4-ARE dual luciferase reporter assay in MEFs; type: cell-based, Mouse; conditions: 12 hour incubation
From the text: According to the theory the active form (p110) of Nrf1 that translocates to the nucleus and activates proteasome genes, is produced upon removal of the N-glycans. Using a construct in which three copies of the antioxidant respond element (ARE) of the human PSMA4 gene were inserted upstream of a SV40 promoter that drives the expression of firefly luciferase in a dual luciferase reporter assay, where plasmids expressing renilla luciferase were used as internal transfection control, we compared the reporter activity in NGly1^−/− MEFs and Wt MEFs after treatment with carfilzomib.
(§1) Luciferase Assays. The construct 3xPSMA4-ARE-Luc (RDB-2415; a kind gift from Senthil Radhakrishnan, Virginia Commonwealth University) was described previously. Briefly, an oligo (5′-[…] […] […] […] […] […] […]-3′) (SEQ ID NO: 10) containing three copies of a putative ARE (shown in uppercase) derived from the first intron of the human PSMA4 gene was annealed to its corresponding reverse-complement oligo and cloned into pGL3-promoter vector (Promega). The promoter reporter was generated by inserting this construct upstream of a minimal SV40 promoter, driving the expression of a firefly luciferase.
Cells were transiently transfected with the firefly (promoter reporters) and renilla luciferase (pRL-TK; Promega) constructs along with effector plasmid as required. […]

MEF cells = test: Viability of MEF NGly1-/- versus MEF WT with carfilzomib (WST-1); type: cell-based, Mouse; conditions: 24 h incubation, doses 5-100 nM
[6] = test system: multiple myeloma cell lines; test: Potentiation of proteasome inhibition in multiple myeloma cell lines; type: cell-based
From the text: Considering the effect of NGly1 KO or knockdown for proteasome inhibitor potentiation, we hoped to find the same effect through the use of a small molecule inhibitor of NGly1. Attempts to use Z-VAD-fmk to potentiate proteasome inhibition in multiple myeloma cell lines were unsuccessful, possibly due to its activity as a potent pan-caspase inhibitor.

Nrf1 [7] = test: Immunoblot of Nrf1 processing in Nrf1 overexpressing HEK cells; type: cell-based, Human; conditions: compound before carfilzomib
From the text: In a second attempt, we used Nrf1 overexpressing HEK cells and applied the small molecule Z-VAD-fmk (FIG. 1B) to inhibit NGly1 before treating the cells with carfilzomib. […] The higher abundance of the p120 band indicates the existence of the N-glycosylated form of Nrf1 as the main species in cells treated with Z-VAD-fmk. […] Thus, the incorrect processing of Nrf1 that we observed in cells treated with Z-VAD-fmk results from inhibition of NGly1 and not from caspase inhibition.
Nrf-3× Flag overexpressing HEK cells (RDB-2867; a kind gift from Senthil Radhakrishnan, Virginia Commonwealth University) were obtained by cloning Human Nrf1 coding region along with a C-terminal 3× Flag sequence into pcDNA3.1+ (Invitrogen, Carlsbad, Calif.). Cells were grown in Dulbecco's modified Eagle's medium (DMEM) supplemented with 10% fetal bovine serum (Clontech Laboratories), penicillin, and streptomycin (Fisher Scientific) at 37° C. in 5% CO2.
Immunoblot Analysis. Cells were lysed in RIPA buffer (50 mM Tris [pH 7.4], 150 mM NaCl, 1% NP40, 1% Na. Deoxycholate, 0.1% SDS, and 1 mM EDTA) supplemented with protease and phosphatase inhibitor cocktail (Pierce). For detecting Nrf1 a rabbit monoclonal antibody raised against the N terminus (D5B10, Cell Signaling) was used. Other immunoblots were performed with antibodies specific for Flag tag (Sigma-Aldrich) and β-actin (Cell Signaling).

Nrf1 [8] = test: 3xPSMA4-ARE dual luciferase reporter assay in Nrf1 overexpressing HEK cells; type: cell-based, Human; conditions: compound prior to carfilzomib
Description: The same experiment was performed in Nrf1 overexpressing HEK cells in which NGly1 was inhibited by Z-VAD-fmk prior to incubation with carfilzomib. The caspase inhibitor QVD-OPh served as control to out rule that observed effect resulted from caspase inhibition.
as §1
Cells were transiently transfected with the firefly (promoter reporters) and renilla luciferase (pRL-TK; Promega) constructs along with effector plasmid as required. Cells were treated with compoubds or vehicle control for 12 hours. Afterwards cells were lysed in the luciferase assays were performed using the dual luciferase reporter assay system (E1910; Promega) according to the instructions from the manufacturer. The firefly luciferase activity was normalized to renilla luciferase activity for all experiments.

Description for H929 cells: Cell survival experiments using the Cell Titer-Glo 2.0 assay were performed in opaque white flat-bottomed 96-well plates. The cells (1.0-2.0×10^4 in 100 μL fresh media) were treated under the desired conditions and incubated for 24 or 48 h before addition of 100 μL assay reagent. Viability was calculated as percent signal compared to vehicle treated cells. Regression analysis and IC50 calculations were performed with GraphPad Prism 7.0.
U266 and H929: U266 or H929 cells were seeded at a density of 0.1 million cells/mL in RPMI medium (100 μL per well). The following day, carfilzomib, DMSO, or WRR139 were added in DMSO to final concentrations as shown for a maximum final concentration of 1% DMSO (v/v). After 48 h of incubation at 37° C. with 5% CO2, the plate was retrieved and treated with the Cell Titer-Glo 2.0 assay. After 10 minutes incubation the plate was analyzed by measuring the luminescence using a Spectra max®i3x (VWR, Australia) plate reader.

Structure (SMILES): CC(C)C[C@H](NC(=O)[C@H](Cc1ccccc1)NC(=O)c1cnccn1)B(O)O [bortezomib]
- incidence of neuropathy [1]: 30-60%

Structure (SMILES): Cc1ccc(S(=O)(=O)/C=C/C(=O)N[C@@H](CCc2ccccc2)C(=O)NCCC(C)C)cc1 [WRR139]
- NGly1 inhibition in validation of the hits (NGly1 [2]; FIG. 4C): inhibit NGly1 in a dose-dependent manner
- IC50 (NGly1 [2]): 5.5 µM
- increase in killing / reduction of LD50 of carfilzomib (H929 cells; H929, WRR139 plus carfilzomib vs carfilzomib alone): 2 fold
- cell survival, co-inhibition with carfilzomib compared to carfilzomib alone (H929 cells; H929, after 24 hours): significantly decreased cell survival
- increase in killing / reduction of LD50 of carfilzomib (U266 cells; U266, WRR139 plus carfilzomib vs carfilzomib alone): 2.6 fold
- cell survival, co-inhibition with carfilzomib compared to carfilzomib alone (U266 cells; U266, after 24 hours): significantly decreased cell survival
- deglycosylation of RNAse B by recombinant Ngly1 (NGly1 [3]): only the original band remains, with no conversion to the deglycosylated form
- concentration at which inhibition of caspases 3/7 is first observed (caspases 3/7): about 10 μM

Structure (SMILES): CC(C)C[C@H](NC(=O)[C@H](CCc1ccccc1)NC(=O)CN1CCOCC1)C(=O)N[C@@H](Cc1ccccc1)C(=O)N[C@@H](CC(C)C)C(=O)[C@@]1(C)CO1 [carfilzomib]
- localization of Nrf1 (Nrf1 [4]; carfilzomib alone): the majority of Nrf1 was observed in the nucleus
- inhibition of proteasome activity (Proteasome; 15 mg/m^2, after the first dose): > 75%
- inhibition of proteasome activity (Proteasome; after five doses): > 90%
- LD50 (K562 cells; K562, dCAS9 knockdowns of Nrf1 or NGly1 (sgNrf1-A, sgNrf1-B, sgNGly1)): 20 nM
- LD50 (K562 cells; K562, no sgRNA or control sgRNA): 40 nM
- reporter (PSM) activity (Nrf1 [5]; NGly1-/- MEFs): no response
- reporter (PSM) activity (Nrf1 [5]; Wt MEFs): increase in PSM activity
- sensitivity of NGly1-/- cells relative to MEF WT (MEF cells): over 2 fold

Structure (SMILES): COC(=O)C[C@H](NC(=O)[C@H](C)NC(=O)[C@@H](NC(=O)OCc1ccccc1)C(C)C)C(=O)CF [Z-VAD-fmk, carbobenzoxy-valyl-alanyl-aspartyl-[O-methyl]-fluoromethylketone] (Cbz-Val-Ala-Asp(OMe)-CH2F)
- IC50 (NGly1 [2]): 4.4 µM
- potentiation of proteasome inhibition [6]: unsuccessful
- Nrf1 processing (p120/p110 bands) (Nrf1 [7]): abnormal processing of Nrf1
- reporter activity (Nrf1 [8]): did not show an increased reporter activity
- localization of Nrf1 (Nrf1 [4]; compound prior to incubation with carfilzomib): high abundance of Nrf1 in the cytosol
- deglycosylation of RNAse B by recombinant Ngly1 (NGly1 [3]): only the original band remains, with no conversion to the deglycosylated form

Reference: US11141389B2, “Agents that inhibit NGLY1 and methods of use thereof” (The Board of Trustees of the Leland Stanford Junior …, priority 2017, dated 2021)
